Converted amounts (≈) assume the structure as drawn. The source made the active and inactive calls. The calls are words filed in the database; no cut-off is given here.
Columns and labels:
[1] = Volume of distribution at steady state in Han Wistar rat at 10 mg/kg, po and 3 mg/kg, iv; format: ADME, organism-based; details: in vivo, read-out: Vdss
[2] = Growth inhibition of human SET2 cells expressing JAK2 V617F mutant after 48 hrs by alamar blue assay; format: functional; details: SET-2, 48 h
[3] = biological target: T1, Tyrosine-protein kinase JAK2 (Homo sapiens, UniProt O60674); experiment: Inhibition of TEL-fused JAK2-induced proliferation of mouse BA/F3 cells; format: cell-based; details: BaF3
T1 sequence (O60674 whole entry, the tested form may be a part): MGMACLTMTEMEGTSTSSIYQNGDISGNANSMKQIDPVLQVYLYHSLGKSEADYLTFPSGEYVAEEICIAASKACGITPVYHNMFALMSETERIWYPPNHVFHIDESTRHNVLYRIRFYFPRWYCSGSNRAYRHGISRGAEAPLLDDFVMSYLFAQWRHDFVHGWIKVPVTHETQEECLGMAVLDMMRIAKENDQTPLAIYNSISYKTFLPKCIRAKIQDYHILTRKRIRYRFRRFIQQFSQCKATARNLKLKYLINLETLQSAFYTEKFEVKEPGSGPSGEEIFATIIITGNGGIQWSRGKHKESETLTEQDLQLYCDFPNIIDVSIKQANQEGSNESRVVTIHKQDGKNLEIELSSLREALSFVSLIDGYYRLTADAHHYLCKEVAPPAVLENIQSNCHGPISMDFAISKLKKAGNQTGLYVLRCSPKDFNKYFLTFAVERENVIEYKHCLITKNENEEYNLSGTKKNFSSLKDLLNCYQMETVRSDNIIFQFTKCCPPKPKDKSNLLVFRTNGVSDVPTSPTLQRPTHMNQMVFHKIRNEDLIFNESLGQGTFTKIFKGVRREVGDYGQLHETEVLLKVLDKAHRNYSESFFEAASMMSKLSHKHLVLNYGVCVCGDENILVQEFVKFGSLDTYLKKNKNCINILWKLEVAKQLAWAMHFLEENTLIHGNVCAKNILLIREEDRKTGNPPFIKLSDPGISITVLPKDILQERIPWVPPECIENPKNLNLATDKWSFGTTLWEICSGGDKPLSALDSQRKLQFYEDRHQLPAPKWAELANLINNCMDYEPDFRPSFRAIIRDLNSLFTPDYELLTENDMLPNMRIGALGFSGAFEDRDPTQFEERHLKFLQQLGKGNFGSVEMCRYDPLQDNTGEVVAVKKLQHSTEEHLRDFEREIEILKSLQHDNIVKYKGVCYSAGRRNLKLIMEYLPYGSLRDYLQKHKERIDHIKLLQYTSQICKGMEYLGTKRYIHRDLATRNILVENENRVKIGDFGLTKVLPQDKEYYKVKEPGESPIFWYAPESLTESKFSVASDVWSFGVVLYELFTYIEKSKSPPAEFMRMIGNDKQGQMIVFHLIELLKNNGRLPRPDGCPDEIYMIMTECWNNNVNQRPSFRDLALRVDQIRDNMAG

[4] = Clearance in Han Wistar rat at 10 mg/kg, po and 3 mg/kg, iv; format: ADME, organism-based; details: in vivo
[5] = Intrinsic clearance in Han Wistar rat microsomes at 10 mg/kg, po and 3 mg/kg, iv; format: ADME, Microsome
[6] = biological target: T2, Tyrosine-protein kinase JAK3 (Homo sapiens) (UniProt P52333); experiment: Inhibition of TEL-fused JAK3-induced proliferative activity against mouse BA/F3 cells; format: cell-based; details: BaF3
T2 sequence (whole entry): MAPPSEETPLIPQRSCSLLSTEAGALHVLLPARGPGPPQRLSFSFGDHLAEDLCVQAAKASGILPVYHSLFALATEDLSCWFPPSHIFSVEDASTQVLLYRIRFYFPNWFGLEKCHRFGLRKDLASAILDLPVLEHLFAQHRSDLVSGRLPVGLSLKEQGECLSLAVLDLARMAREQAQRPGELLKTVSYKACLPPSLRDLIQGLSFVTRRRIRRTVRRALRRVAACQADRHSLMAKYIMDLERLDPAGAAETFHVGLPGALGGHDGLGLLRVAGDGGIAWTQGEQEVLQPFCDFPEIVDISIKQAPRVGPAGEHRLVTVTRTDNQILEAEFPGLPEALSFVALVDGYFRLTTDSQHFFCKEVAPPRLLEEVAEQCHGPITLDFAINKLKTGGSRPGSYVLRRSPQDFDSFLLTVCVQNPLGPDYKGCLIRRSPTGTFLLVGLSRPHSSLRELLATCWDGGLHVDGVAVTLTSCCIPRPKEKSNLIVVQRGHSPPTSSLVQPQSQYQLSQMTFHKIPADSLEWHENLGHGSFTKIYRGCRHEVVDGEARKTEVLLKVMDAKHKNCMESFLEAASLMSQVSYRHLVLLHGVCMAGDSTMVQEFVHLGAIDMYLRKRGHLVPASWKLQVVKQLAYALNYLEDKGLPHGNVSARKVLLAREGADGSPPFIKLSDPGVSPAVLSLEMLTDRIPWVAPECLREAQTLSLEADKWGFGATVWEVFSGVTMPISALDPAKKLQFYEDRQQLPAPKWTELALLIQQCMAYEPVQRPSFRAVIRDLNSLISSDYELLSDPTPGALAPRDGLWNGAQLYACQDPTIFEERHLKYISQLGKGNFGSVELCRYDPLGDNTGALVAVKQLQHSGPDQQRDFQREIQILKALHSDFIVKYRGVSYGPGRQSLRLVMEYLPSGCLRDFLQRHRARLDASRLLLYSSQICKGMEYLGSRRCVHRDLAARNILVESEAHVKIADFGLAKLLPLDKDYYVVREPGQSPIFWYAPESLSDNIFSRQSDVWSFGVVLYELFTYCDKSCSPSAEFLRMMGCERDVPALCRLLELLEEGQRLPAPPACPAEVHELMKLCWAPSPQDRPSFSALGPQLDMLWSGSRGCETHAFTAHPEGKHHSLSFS

[7] = Oral bioavailability in Han Wistar rat at 10 mg/kg; format: ADME, organism-based; details: in vivo
[8] = biological target: T1, Tyrosine-protein kinase JAK2; experiment: Inhibition of JAK2 after 60 min
[9] = Half life in Han Wistar rat at 10 mg/kg, po and 3 mg/kg, iv; format: ADME, organism-based; details: in vivo
[10] = biological target: T3, Tyrosine-protein kinase JAK3 (Homo sapiens, UniProt P52333); experiment: Inhibition of JAK3 after 60 min
T3 sequence (P52333 whole entry): T2 sequence (whole entry)

[11] = Aqueous solubility of compound; format: physicochemical
Mus musculus [12] = experiment: Inhibition of STAT5 phosphorylation in NCr mouse tansplanted with TEL-JAK2 expressing mouse BA/F3 cells at 5 mg/kg, po upto 2 hrs; format: functional, organism-based; set-up: dose 5 mg/kg; details: BaF3
[13] = Half life in dog; format: ADME, organism-based, Canis lupus familiaris; details: in vivo
[14] = Free drug level in plasma of NCr mouse tansplanted with TEL-JAK2 expressing mouse BA/F3 cells at 10 mg/kg, po after 6 hrs; format: ADME, organism-based, BaF3; set-up: dose 10 mg/kg, route oral; details: in vivo
[15] = biological target: T1, Tyrosine-protein kinase JAK2; experiment: Inhibition of human JAK2
[16] = Clearance in dog; format: ADME, organism-based, Canis lupus familiaris; details: in vivo
[17] = Fraction unbound in human plasma; format: ADME, cell-free
Mus musculus [18] = experiment: Inhibition of STAT5 phosphorylation in NCr mouse tansplanted with TEL-JAK2 expressing mouse BA/F3 cells at 10 mg/kg, po measured at 6 hrs; format: functional; details: BaF3, 6 h
Mus musculus [19] = experiment: Inhibition of STAT5 phosphorylation in NCr mouse tansplanted with TEL-JAK2 expressing mouse BA/F3 cells at 2.5 mg/kg, po upto 2 hrs; format: functional, organism-based; set-up: dose 2.5 mg/kg; details: BaF3
[20] = Plasma concentration in NCr mouse tansplanted with TEL-JAK2 expressing mouse BA/F3 cells at 10 mg/kg, po after 2 hrs; format: ADME, organism-based, BaF3; set-up: dose 10 mg/kg, route oral
Ephrin type-B receptor 2 = biological target: T4, Ephrin type-B receptor 2 (Homo sapiens, UniProt P29323); experiment: Inhibition of human EphB2
T4 sequence (P29323 whole entry): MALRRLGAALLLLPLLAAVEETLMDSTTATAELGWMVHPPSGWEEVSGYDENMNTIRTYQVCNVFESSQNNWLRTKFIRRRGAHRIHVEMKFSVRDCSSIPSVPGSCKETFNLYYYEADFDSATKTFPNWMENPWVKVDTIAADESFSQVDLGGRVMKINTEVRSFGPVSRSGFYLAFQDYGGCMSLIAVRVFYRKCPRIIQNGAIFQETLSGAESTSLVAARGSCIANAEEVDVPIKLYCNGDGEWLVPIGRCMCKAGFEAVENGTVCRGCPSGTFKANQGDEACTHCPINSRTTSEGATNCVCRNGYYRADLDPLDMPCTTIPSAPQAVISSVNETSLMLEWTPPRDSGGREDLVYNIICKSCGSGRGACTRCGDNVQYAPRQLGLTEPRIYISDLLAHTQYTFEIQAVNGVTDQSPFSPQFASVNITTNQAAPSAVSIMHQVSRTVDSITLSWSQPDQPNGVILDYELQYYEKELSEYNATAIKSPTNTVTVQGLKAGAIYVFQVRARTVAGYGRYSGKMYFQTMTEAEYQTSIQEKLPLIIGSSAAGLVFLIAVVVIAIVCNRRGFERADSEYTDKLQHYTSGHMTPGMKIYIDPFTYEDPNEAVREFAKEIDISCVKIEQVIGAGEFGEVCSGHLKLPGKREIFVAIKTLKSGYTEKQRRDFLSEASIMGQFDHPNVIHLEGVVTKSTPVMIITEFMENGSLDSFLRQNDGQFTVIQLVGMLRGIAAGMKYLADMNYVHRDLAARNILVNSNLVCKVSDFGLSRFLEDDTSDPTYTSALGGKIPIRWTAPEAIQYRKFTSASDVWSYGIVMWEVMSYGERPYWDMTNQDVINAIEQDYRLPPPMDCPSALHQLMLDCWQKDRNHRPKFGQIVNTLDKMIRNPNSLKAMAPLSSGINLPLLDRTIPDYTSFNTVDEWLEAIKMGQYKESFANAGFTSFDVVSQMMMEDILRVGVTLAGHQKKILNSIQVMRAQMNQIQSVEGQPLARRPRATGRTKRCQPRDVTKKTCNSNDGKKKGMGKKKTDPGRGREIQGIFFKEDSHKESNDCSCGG

Mus musculus [21] = experiment: Inhibition of STAT5 phosphorylation in NCr mouse tansplanted with TEL-JAK2 expressing mouse BA/F3 cells at 5 mg/kg, po measured at 6 hrs; format: functional; details: BaF3, 6 h
[22] = Oral bioavailability in dog; format: ADME, organism-based, Canis lupus familiaris; details: in vivo
[23] = biological target: Tyrosine-protein kinase Lck (Homo sapiens, UniProt P06239); experiment: Inhibition of human Lck
Chain of Tyrosine-protein kinase Lck (P06239 whole entry): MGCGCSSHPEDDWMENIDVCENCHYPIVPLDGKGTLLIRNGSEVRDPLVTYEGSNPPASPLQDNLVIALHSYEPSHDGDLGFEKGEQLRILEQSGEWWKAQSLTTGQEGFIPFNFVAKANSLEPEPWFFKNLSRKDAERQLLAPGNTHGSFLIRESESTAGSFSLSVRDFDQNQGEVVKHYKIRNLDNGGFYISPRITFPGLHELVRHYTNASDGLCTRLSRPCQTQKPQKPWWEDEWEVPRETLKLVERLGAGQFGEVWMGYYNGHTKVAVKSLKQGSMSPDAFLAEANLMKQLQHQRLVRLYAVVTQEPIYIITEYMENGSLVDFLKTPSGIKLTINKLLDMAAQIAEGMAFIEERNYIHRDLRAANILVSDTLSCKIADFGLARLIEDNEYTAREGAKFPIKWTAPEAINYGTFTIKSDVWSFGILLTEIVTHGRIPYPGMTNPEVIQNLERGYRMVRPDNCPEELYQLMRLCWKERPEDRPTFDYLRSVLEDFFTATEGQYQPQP

[24] = Plasma concentration in NCr mouse tansplanted with TEL-JAK2 expressing mouse BA/F3 cells at 10 mg/kg, po after 6 hrs; format: ADME, organism-based, BaF3; set-up: dose 10 mg/kg, route oral
[25] = biological target: T5, High affinity nerve growth factor receptor (Homo sapiens, UniProt P04629); experiment: Inhibition of human truncated TrkA in human MCF10a cells by time-resolved fluorimetry; format: cell-based
Target sequence in this assay (P04629 33-796 limits assumed): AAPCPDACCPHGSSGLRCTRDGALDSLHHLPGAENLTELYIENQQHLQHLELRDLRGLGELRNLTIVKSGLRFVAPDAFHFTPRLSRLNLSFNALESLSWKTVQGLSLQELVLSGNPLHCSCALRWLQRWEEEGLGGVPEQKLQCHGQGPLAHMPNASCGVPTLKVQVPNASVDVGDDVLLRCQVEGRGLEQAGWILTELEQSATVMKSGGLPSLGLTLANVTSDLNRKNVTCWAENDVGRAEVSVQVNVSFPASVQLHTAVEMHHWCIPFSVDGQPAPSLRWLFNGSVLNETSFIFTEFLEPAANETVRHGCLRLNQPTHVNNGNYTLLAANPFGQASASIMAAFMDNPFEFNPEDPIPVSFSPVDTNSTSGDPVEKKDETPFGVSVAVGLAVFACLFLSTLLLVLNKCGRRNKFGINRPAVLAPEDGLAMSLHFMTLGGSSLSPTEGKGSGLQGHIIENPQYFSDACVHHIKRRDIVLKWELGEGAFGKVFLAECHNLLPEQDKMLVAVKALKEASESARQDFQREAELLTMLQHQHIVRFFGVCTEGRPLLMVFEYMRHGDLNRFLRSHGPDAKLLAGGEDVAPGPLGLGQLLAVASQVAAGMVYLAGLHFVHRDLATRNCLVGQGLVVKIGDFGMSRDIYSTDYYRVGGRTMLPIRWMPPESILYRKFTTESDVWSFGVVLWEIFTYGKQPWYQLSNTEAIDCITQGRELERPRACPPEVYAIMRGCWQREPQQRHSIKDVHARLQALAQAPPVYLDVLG

[26] = biological target: T5, High affinity nerve growth factor receptor; experiment: Inhibition of human TRKA
Target sequence in this assay (P04629 whole entry, the tested form may be a part): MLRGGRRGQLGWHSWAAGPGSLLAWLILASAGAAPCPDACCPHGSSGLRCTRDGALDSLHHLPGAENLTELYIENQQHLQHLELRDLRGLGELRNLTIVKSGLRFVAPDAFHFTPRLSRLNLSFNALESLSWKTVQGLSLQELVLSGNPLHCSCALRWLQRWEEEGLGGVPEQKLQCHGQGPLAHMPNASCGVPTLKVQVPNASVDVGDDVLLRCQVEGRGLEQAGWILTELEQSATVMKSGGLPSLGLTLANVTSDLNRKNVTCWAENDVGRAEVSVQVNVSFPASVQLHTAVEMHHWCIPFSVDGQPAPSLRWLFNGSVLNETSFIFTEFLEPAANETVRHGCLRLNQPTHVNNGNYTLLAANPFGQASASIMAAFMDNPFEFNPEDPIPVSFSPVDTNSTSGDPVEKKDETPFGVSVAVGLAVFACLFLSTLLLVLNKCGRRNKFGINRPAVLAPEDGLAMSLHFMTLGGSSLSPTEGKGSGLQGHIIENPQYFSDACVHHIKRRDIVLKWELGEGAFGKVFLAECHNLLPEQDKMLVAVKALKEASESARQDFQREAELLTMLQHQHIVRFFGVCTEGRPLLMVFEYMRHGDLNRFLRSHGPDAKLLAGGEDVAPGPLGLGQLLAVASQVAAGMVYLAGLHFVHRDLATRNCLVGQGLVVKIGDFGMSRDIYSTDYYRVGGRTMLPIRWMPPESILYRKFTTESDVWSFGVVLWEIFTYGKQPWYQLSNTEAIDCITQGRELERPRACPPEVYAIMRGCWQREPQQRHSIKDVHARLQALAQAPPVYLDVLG

[27] = biological target: T6, Muscle, skeletal receptor tyrosine-protein kinase (Homo sapiens, UniProt O15146); experiment: Inhibition of human MuSk
T6 sequence (O15146 whole entry): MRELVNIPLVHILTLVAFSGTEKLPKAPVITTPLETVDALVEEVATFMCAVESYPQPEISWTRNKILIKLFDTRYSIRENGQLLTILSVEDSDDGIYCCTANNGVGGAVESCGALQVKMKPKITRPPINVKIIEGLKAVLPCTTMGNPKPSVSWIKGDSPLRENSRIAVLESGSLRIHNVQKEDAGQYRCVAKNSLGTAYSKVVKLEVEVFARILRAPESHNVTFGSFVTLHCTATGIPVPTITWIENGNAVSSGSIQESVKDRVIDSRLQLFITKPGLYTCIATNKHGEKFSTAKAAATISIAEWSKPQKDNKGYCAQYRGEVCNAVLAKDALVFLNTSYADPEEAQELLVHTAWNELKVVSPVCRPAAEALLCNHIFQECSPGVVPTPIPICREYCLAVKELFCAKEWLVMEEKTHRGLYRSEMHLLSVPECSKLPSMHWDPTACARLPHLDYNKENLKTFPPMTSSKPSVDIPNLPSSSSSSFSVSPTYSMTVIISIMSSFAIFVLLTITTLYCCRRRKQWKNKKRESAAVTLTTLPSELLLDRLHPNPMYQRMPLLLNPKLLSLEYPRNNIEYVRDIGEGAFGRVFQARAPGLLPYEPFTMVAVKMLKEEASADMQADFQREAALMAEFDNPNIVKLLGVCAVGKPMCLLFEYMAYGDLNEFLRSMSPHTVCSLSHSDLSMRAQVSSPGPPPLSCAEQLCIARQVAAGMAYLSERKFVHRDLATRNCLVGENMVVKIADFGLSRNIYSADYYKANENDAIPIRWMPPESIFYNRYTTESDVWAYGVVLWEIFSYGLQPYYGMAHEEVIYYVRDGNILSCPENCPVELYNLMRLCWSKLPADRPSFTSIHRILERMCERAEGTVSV

[28] = biological target: T3, Tyrosine-protein kinase JAK3; experiment: Inhibition of human JAK3
Mus musculus [29] = experiment: Inhibition of STAT5 phosphorylation in NCr mouse tansplanted with TEL-JAK2 expressing mouse BA/F3 cells at 10 mg/kg, po upto 2 hrs; format: functional, organism-based; set-up: dose 10 mg/kg; details: BaF3
[30] = biological target: Receptor-type tyrosine-protein kinase FLT3 (Homo sapiens, UniProt P36888, D835Y); experiment: Inhibition of human FLT3 D835Y mutant

Vd [1] [L/kg]	GI50 [3] [nM]	clearance [4] [mL/min/kg]	microsomal CLint [5] [µL/min/mg]	GI50 [6] [nM]	bioavailability [7] [%]	IC50 [8] [nM]	half-life [9] [h]	IC50 [10] [nM]	solubility [11] [µM]	SMILES	other results
2.6	24	7.5	17	350	44	< 3	5.7	9	13 (≈ 4.61 µg/mL)	Cc1cc(Nc2nc(N[C@@H](C)c3ccc(F)cc3)c(C#N)cc2F)n[nH]1	GI50 [2]: 33 nM
0.52	40	2.3	5	430	47	< 3	2.7	21	100 (≈ 37.2 µg/mL)	Cc1cc(Nc2nc(N[C@@H](C)c3ccc(F)cn3)c(C#N)cc2Cl)n[nH]1	–
–	170	–	–	1000	–	3	–	183	–	C[C@H](Nc1nc(Nc2cc(C3CC3)[nH]n2)c(F)cc1C#N)c1ccc(F)cc1	–
0.84	36	4.8	5	1300	39	< 3	2.2	7	303 (≈ 108 µg/mL)	Cc1cc(Nc2nc(N[C@@H](C)c3ccc(F)cn3)c(C#N)cc2F)n[nH]1	inhibition (Mus musculus [12]): Active; half-life [13]: 3.6 h; Cp(f) [14]: 49 nM; IC50 [15]: < 1 nM; clearance [16]: 7.4 mL/min/kg; fraction unbound [17]: 0.053; inhibition in vivo at 10 mg/kg (Mus musculus [18]): 54%; inhibition (Mus musculus [19]): Active; concentration at 2 h [20]: 1100 ng/mL; IC50 (Ephrin type-B receptor 2): > 10000 nM; inhibition in vivo at 5 mg/kg (Mus musculus [21]): 54%; bioavailability [22]: 100%; IC50 [23]: 215 nM; concentration at 6 h [24]: 328 ng/mL; IC50 [25]: 276 nM; IC50 [26]: 3 nM; IC50 [27]: 224 nM; IC50 [28]: 15 nM; inhibition (Mus musculus [29]): Active; IC50 [30]: 82 nM
–	–	–	–	–	–	688	–	1740	–	CC(C)Oc1cc(Nc2nc(N[C@@H](C)c3ccc(F)cc3)c(C#N)cc2F)n[nH]1	–

From ChEMBL document CHEMBL1772962, “In vitro and in vivo evaluation of 6-aminopyrazolyl-pyridine-3-carbonitriles as JAK2 kinase inhibitors” (Bioorg Med Chem Lett, 2011)
